The text below walks through data of patent US12534477B2, “Compound having KHK inhibitory effect” (HANGZHOU ZHONGMEIHUADONG PHARMACEUTICAL CO., LTD., priority 2019, dated 2026).

Data set [1] concerns the target Recombinant Human Ketohexokinase (KHK) (Homo sapiens (Human), UniProt P50053). Briefly: Ketohexokinase assay (KHK assay), ADP-Glo. Type of data set: biochemical. The protocol:
• 1. EnVision multilabel reader, Perkin Elmer; • 2. OptiPlate 384-well microplate, Perkin Elmer, Cat. No. 6007290; • 3. Recombinant Human Ketohexokinase (KHK), R&D Cat. No.: 8177-HK-020, Lot No.: DDFK0117092; • 4. Fructose (D(−)-Fructose), SCR Cat. No.: 36003034; and • 5. ADP-Glo kinase assay kit, Promega_Cat. No.: V9101.
1. preparation of Dilution Buffer containing 50 mM hydroxyethylpiperazine […] (Hepes), 140 mM KCl, 3.5 mM MgCl2, and 0.01% bovine serum albumin (BSA), pH 7.4.
2. A working solution of ketohexokinase at 2.5 times concentration was prepared with Dilution Buffer, with 50 nM ketohexokinase and 12.5 mM fructose.
3. A working solution of adenosine triphosphate (ATP) at 2.5 times concentration was prepared with Dilution Buffer, with a concentration of 250 μM.
4. Each compound was diluted starting at a concentration of 500 μM, 3-fold diluted for 9 concentration points. The final concentration of the compound in the reaction system started from 10 μM and the final concentration of dimethyl sulfoxide (DMSO) was 2%.
5. A 96-well plate was prepared as a reaction plate, and was incubated at room temperature for 5 min after adding 6 μL ketohexokinase working solution at 2.5 times concentration to each well and further adding 3 μL compound working solution to each well.
6. The first well of each row was a positive control for a compound, i.e. the same volume of the buffer was added to replace the compound and ketohexokinase. The last well was a negative control for the compound, i.e. the same volume of Dilution Buffer was added instead of the compound.
7. 6 μL ATP working solution was added to each well in a 96-well reaction plate to initiate the kinase reaction. The kinase reaction was incubated in a constant temperature heater at 28° C. for 1 h.
1. A384 plate was prepared as a detection plate, and firstly 5 μL ADP-Glo reagent was added.
2. 5 μL kinase reaction mixture from the reaction plate was added to each well and incubated in a constant temperature heater at 28° C. for 30 min.
3. 10 μL kinase detection reagent was added to each well and incubated in a constant temperature heater at 28° C. for 30 min.
4. The detection plate was placed in an EnVision multilabel reader to read the chemiluminescent signal.
(In general: ADP-Glo first removes unused ATP, then detects ADP through luciferase.)

Data set [2] is described as follows: Liver-blood ratio, tissue distribution in rats. Type of data set: in vivo, SD rats. Conditions: PO 1 mpk. How it is done: Tissue distribution of compounds in SD rats was tested.
In the experiment, candidate compounds were formulated as clear solutions and administered to rats in a single oral dose (PO, 1 mpk). The vehicle for oral administration was a certain proportion of methylcellulose and Tween 80 in water. Whole blood was collected at a certain time and plasma was prepared, and tissues were collected at the corresponding time and prepared into tissue homogenates. Drug concentration was analyzed by LC-MS/MS, and pharmacokinetic parameters were calculated by Phoenix WinNonlin software.

The nature of data set [3]: Pharmacokinetic evaluation in SD rats. In kind it is in vivo. Conditions: rat, plasma; for clearance: 1 mg/kg, read-out: Clearance rate; for clearance / bioavailability: IV 1 mpk; for bioavailability / AUC: PO 3 mpk; for bioavailability: read-out: Bioavailability F; for AUC: read-out: Integral concentration AUC for PO; for half-life: IV 1 mpk and PO 3 mpk study, read-out: Half-life T1/2 (converted). The protocol:
In vivo pharmacokinetics of compounds in SD rats were tested.
Pharmacokinetic profiles in rodents following intravenous and oral administration of the compounds were tested by standard protocols. In the experiment, candidate compounds were formulated as clear solutions or homogeneous suspensions, and were administered to rats by single intravenous injection (IV, 1 mpk) and oral administration (PO, 3 mpk). The vehicle for intravenous injection was a certain proportion of PEG400 in water, and the vehicle for oral administration was a certain proportion of methylcellulose and Tween 80 in water. Whole blood was collected, and plasma was prepared. Drug concentration was analyzed by LC-MS/MS, and pharmacokinetic parameters were calculated by Phoenix WinNonlin software.

Another data set concerns the target CYP1A2 (Homo sapiens (Human), UniProt P05177). Type of data set: in vitro ADME. Conditions: microsomes. How it is done: (§1) The inhibitory effect of test compounds on the activity of human hepatic microsomal cytochrome P450 isozymes (CYP1A2, CYP2C9, CYP2C19, CYP2D6 and CYP3A4) was determined.
(§2) First, the test compound (10 mM) was diluted in gradient to prepare working solutions (100×final concentration) with working solution concentrations: 5, 1.5, 0.5, 0.15, 0.05, 0.015, 0.005 mM, respectively, and at the same time, working solutions of each positive inhibitor of P450 isozymes (CYP1A2, CYP2C9, CYP2C19, CYP2D6 and CYP3A4) and its specific substrate mixture were prepared. Human liver microsomes frozen in a −80° C. refrigerator were thawed on ice, and diluted with PB (phosphate buffer) after all the human liver microsomes were dissolved, to prepare a working solution at a certain concentration (0.253 mg/mL). 20 μl substrate mixture was added to the reaction plate (20 μL PB was added to the Blank wells) while 158 μL human liver microsome working solution was added to the reaction plate which was placed on ice for later use. At this time, 2 μL of each concentration of the test compound (N=1) and the specific inhibitor (N=2) were added to the corresponding wells, and the corresponding organic solvents were added to the groups without inhibitors (the test compound or the positive inhibitor) as control samples (1:1 DMSO:MeOH for the test compound control sample, and 1:9 DMSO:MeOH for the positive control sample). After pre-incubation in 37° C. water bath for 10 min, 20 μL coenzyme factor (NADPH) solution was added to the reaction plate, and incubated in 37° C. water bath for 10 min. 400 μL cold acetonitrile solution (200 ng/mL Tolbutamide and Labetalol as the internal standard) was added to stop the reaction. The reaction plate was placed on a shaker and shaken for 10 min. The mixture was centrifuged at 4,000 rpm for 20 min, and 200 μl the supernatant was added to 100 μL water for sample dilution. Finally, the plate was sealed, shaken, mixed well and detected by LC/MS/MS.

In another data set the target is CYP2D6 (Homo sapiens (Human), UniProt P10635). In words: Inhibitory activity on human liver microsomal cytochrome P450 isozymes. In kind it is in vitro ADME. Conditions: human liver microsomes. The protocol:
as §1, §2

A further data set deals with CYP2C19 (Homo sapiens (Human), UniProt P33261). Described as above. Type of data set: in vitro ADME. Conditions: human liver microsomes. How it is done:
as §1, §2
For orientation: Microsomes from liver hold many membrane-bound enzymes, among them those of drug oxidation.

The next data set addresses CYP2C9 (Homo sapiens (Human), UniProt P11712). The data set is described as above. Type of data set: in vitro ADME. Conditions: human liver microsomes. The protocol:
as §1, §2

For a further data set, the target named is CYP3A4 (Homo sapiens (Human), UniProt P08684). The description is as above. In kind it is in vitro ADME. Conditions: human liver microsomes. The protocol: as §1, §2
Data set [4] deals with fructose metabolism in mice. In words: Acute fructose feeding experiment in mice. Conditions: compound 30 mpk, oral fructose 1 g/kg. In kind it is in vivo. The protocol: The effect of test compounds on the fructose content in mice with high fructose intake was investigated.
All animals were acclimated for one week in an animal house, fed with normal chow and fasted for 16 hours before being given fructose.
1) The experiment began at −0.5 hr. A control group was given a certain volume of vehicle (a certain proportion of methylcellulose and Tween 80 in water), and an experimental group was given a certain dose of a solution of the compound (the administered volume was consistent with the vehicle).
2) 0.5 hour later and before administration of a fructose solution, a blood sample was collected at 0 hr, followed by oral administration of 1 g/kg of an aqueous fructose solution.
3) After the administration of fructose, blood samples were collected from saphenous vein of mice at 0.25, 0.5, 1, 2, 3 and 8 hr, and fructose concentration was analyzed by LC-MS/MS.

The mark [5] stands for this setting: SD, rat, liver, 1 mg/kg, 1.5 h, read-out: Liver tissue concentration.
The mark [6] stands for this setting: SD, rat, liver, 1 mg/kg, 2.0 h, read-out: Liver tissue concentration.
The mark [7] stands for this setting: SD, rat, liver, 1 mg/kg, 6.0 h, read-out: Liver tissue concentration.
Setting [8] is: SD, rat, liver/plasma, 1 mg/kg, 1.5 h, read-out: Liver-blood ratio.
The mark [9] stands for this setting: SD, rat, liver/plasma, 1 mg/kg, 2.0 h, read-out: Liver-blood ratio.
[10] abbreviates: SD, rat, liver/plasma, 1 mg/kg, 6.0 h, read-out: Liver-blood ratio.
Setting [11] is: SD, rat, plasma, 1 mg/kg, 1.5 h, read-out: Plasma concentration.
Setting [12] is: SD, rat, plasma, 1 mg/kg, 2.0 h, read-out: Plasma concentration.
Where [13] appears, read: SD, rat, plasma, 1 mg/kg, 6.0 h, read-out: Plasma concentration.

Like-named read-outs stand apart in the source and are kept apart here.

CYP3A4, sequence (P08684 whole entry): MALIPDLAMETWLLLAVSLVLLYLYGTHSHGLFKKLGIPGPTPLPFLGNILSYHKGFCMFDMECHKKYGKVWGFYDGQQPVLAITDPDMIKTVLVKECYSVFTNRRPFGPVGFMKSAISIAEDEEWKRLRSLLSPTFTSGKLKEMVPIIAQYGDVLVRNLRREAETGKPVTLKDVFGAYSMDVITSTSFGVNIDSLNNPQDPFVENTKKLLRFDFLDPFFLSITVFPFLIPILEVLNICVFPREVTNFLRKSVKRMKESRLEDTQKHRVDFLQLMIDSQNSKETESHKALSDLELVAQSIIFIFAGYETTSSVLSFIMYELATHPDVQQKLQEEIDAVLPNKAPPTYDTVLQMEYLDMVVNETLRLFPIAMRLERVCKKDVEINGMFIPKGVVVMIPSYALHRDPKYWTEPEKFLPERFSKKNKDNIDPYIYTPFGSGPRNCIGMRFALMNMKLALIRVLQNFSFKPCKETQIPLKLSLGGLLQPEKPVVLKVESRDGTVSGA
CYP2D6, sequence (P10635 whole entry): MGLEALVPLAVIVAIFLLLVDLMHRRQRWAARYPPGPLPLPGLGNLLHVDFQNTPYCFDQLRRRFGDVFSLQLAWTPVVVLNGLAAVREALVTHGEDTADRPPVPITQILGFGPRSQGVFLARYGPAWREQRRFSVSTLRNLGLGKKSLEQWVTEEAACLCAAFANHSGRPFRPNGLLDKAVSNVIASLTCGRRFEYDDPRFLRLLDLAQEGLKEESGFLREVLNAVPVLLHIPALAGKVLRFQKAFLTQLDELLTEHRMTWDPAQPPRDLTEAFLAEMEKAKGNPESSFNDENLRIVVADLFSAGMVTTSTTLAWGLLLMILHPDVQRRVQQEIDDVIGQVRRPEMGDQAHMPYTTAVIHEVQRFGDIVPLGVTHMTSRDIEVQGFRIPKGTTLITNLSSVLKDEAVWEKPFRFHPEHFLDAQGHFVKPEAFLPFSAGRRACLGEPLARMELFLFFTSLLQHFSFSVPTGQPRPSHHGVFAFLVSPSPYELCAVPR
CYP1A2, sequence (P05177 whole entry): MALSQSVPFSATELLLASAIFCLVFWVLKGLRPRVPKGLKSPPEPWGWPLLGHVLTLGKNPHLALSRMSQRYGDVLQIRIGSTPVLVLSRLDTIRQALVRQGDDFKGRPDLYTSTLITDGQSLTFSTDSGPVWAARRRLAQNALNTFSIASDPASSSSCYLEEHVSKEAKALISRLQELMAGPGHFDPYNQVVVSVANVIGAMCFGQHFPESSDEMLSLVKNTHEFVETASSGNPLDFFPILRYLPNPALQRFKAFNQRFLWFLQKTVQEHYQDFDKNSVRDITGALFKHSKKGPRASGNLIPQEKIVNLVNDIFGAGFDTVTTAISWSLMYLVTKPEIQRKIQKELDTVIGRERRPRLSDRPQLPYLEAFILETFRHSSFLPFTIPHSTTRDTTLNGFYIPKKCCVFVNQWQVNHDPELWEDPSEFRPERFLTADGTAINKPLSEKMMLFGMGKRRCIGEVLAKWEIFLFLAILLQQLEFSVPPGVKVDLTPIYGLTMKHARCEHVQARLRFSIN
CYP2C9, sequence (P11712 whole entry): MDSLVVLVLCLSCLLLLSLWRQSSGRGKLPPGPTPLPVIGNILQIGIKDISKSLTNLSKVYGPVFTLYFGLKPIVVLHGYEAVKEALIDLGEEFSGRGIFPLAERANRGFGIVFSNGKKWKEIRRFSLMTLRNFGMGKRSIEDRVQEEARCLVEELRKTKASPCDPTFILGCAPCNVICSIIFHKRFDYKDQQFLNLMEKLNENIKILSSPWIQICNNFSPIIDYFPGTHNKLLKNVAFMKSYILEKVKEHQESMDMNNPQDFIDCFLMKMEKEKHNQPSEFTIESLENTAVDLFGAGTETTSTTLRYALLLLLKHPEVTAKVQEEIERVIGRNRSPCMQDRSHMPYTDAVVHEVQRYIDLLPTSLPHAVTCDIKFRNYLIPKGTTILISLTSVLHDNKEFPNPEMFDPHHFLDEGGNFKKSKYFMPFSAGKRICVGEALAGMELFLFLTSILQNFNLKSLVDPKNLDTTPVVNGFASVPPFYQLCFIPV
CYP2C19, sequence (P33261 whole entry): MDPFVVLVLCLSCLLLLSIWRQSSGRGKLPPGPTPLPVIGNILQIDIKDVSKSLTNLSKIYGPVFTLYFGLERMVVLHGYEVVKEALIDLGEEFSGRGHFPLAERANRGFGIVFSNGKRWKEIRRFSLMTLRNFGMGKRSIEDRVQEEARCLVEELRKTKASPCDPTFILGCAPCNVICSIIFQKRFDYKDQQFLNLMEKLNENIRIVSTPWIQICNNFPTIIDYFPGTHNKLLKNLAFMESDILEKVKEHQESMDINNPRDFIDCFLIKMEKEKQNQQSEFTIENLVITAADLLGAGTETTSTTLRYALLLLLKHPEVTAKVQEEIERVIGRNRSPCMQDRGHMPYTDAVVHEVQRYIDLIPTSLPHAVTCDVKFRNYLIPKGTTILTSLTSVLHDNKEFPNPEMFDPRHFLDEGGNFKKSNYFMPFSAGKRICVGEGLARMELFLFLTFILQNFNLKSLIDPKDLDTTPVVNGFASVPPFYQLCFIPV
Recombinant Human Ketohexokinase (KHK), sequence (P50053 whole entry): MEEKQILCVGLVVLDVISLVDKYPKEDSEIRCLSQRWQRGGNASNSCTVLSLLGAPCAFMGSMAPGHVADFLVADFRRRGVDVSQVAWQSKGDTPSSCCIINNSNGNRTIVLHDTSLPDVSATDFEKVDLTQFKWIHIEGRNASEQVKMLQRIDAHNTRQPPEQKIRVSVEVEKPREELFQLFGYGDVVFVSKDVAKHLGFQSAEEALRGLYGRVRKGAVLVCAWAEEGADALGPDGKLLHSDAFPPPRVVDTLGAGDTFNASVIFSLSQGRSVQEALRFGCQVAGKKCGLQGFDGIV

Consider `C[C@H]1CCN1c1nc(N2C[C@@H]3[C@@H](CC(=O)O)[C@@H]3C2)c2ncsc2n1` [WX001], for which the IC50 (in general, the concentration needed to halve the response being measured) is 0.18 µM in [1]; greater than 50 µM against CYP1A2 (human, 10 min); greater than 50 µM at CYP2D6; greater than 50 µM against CYP2C19; greater than 50 µM on CYP2C9; greater than 50 µM against CYP3A4. For the same compound, the concentration at 1.5 h was 72.8 nM in data set [2] (SD, rat, brain, 1 mg/kg, 1.5 h, read-out: Brain tissue concentration); 2440 nM in [2] (setting [5]); 4880 nM in [2] (setting [11]). In addition, the concentration at 2 h in data set [2] (SD, rat, brain, 1 mg/kg, 2.0 h, read-out: Brain tissue concentration) is 162 nM; in data set [2] (setting [6]), 4270 nM; in [2] (setting [12]) it was 9090 nM. Besides, the concentration at 6 h was 91.5 nM in [2] (SD, rat, brain, 1 mg/kg, 6.0 h, read-out: Brain tissue concentration); 1790 nM in data set [2] (setting [7]); 3320 nM in data set [2] (setting [13]). For the same compound, the Kp at 1.5 h in [2] (SD, rat, brain/plasma, 1 mg/kg, 1.5 h, read-out: Brain-blood ratio) was 0.015; in data set [2] (setting [8]), 0.491. Besides, the Kp at 2 h in [2] (SD, rat, brain/plasma, 1 mg/kg, 2.0 h, read-out: Brain-blood ratio) was 0.017; in [2] (setting [9]) it was 0.469. For the same compound, the Kp at 6 h in data set [2] (SD, rat, brain/plasma, 1 mg/kg, 6.0 h, read-out: Brain-blood ratio) amounted to 0.02; in data set [2] (setting [10]), 0.549. Moreover, the clearance (commonly the rate of elimination divided by the concentration) in data set [3] was found to be 1.04 mL/min/kg. Besides, the bioavailability in data set [3] (3 mg/kg) came out at 158%. In [3] (3 mg/kg), the AUC came out at 163 µM·h. For the same compound, the half-life in data set [3] was 3.12 h.

For `C[C@H]1CCN1c1nc(Nc2ccc(CC(=O)O)cc2)c2ccsc2n1` [WX006], the IC50 in data set [1] is 0.025 µM; on CYP1A2 (human, 10 min), greater than 50 µM; against CYP2D6, greater than 50 µM; on CYP2C19 it was greater than 50 µM; on CYP2C9 it was greater than 50 µM; on CYP3A4, greater than 50 µM. Moreover, the concentration at 1.5 h in data set [2] (setting [5]) is 2420 nM; in [2] (setting [11]), 2010 nM. In addition, the concentration at 2 h worked out at 2860 nM in data set [2] (setting [6]) and 3100 nM in data set [2] (setting [12]). Besides, the concentration at 6 h in data set [2] (setting [7]) amounted to 2180 nM; in [2] (setting [13]), 1780 nM. Further, the Kp at 1.5 h in [2] (setting [8]) stood at 1.2. Moreover, in data set [2] (setting [9]), the Kp at 2 h turned out to be 0.92. Also, the Kp at 6 h in [2] (setting [10]) was 1.25. Besides, the clearance in data set [3] was 1.05 mL/min/kg. Moreover, the bioavailability in data set [3] (3 mg/kg) stood at 44%. Further, the AUC in data set [3] (3 mg/kg) stood at 39.5 µM·h. Further, the half-life in data set [3] was 2.63 h.

As to `C[C@H]1CCN1c1nc(N2CC3(C[C@@H]3C(=O)O)C2)c2c(n1)C(F)(F)CC2` [WX042], the Brain-blood ratio in data set [2] (1.5 h) is given as 0.0375; in data set [2] (2.0 h), 0.0211. Besides, the Liver-blood ratio in [2] (1.5 h) is on record as 9.53; in data set [2] (2.0 h), 6.78; in data set [2] (6.0 h), 26.2. Besides, the values for the Plasma concentration in data set [2] (1.5 h), in [2] (2.0 h) and in [2] (6.0 h) were 3314 nM, 3045 nM and 259 nM, respectively. Further, the concentration at 6 h in [2] (1.5 h, read-out: Brain tissue concentration) is on record as 76.2 nM; in data set [2] (2.0 h, read-out: Brain tissue concentration), 62.2 nM. For the same compound, the concentration at 1.5 h came to 19900 nM in data set [2] (1.5 h, read-out: Liver tissue concentration); 20600 nM in [2] (2.0 h, read-out: Liver tissue concentration); 6710 nM in data set [2] (6.0 h, read-out: Liver tissue concentration). In addition, in [4], the “AUC of integral fructose concentration for dosed group” value was determined as 3400 nM·h. In addition, the “AUC of integral fructose concentration of dosed group/AUC of Integral fructose concentration of control group” value in [4] stood at 12.9. The clearance in data set [3] turned out to be 8.13 mL/min/kg. Also, the AUC in data set [3] (3 mg/kg) was 20.5 µM·h. Also, in data set [3], the half-life is 2.27 h. For the same compound, the bioavailability in data set [3] is 176%. For the same compound, the IC50 at CYP1A2, against CYP2D6, on CYP2C19, at CYP2C9 and against CYP3A4 was greater than 50 µM each time.
